Measured values taken from patent publication US6294674A, “Dibenzofuran sulfonamide matrix metalloproteinase inhibitors” (priority 1999, dated 2001).
Like-named read-outs stand apart in the source and are kept apart here.

Key:
MMP01 = target: T1, MMP01 (Homo sapiens, UniProt P03956); assay: Thiopeptolide assay, MMP01; format: biochemical
T1 construct: purchased Washington University School of Medicine, St. Louis, Mo
T1 sequence (P03956 100-469): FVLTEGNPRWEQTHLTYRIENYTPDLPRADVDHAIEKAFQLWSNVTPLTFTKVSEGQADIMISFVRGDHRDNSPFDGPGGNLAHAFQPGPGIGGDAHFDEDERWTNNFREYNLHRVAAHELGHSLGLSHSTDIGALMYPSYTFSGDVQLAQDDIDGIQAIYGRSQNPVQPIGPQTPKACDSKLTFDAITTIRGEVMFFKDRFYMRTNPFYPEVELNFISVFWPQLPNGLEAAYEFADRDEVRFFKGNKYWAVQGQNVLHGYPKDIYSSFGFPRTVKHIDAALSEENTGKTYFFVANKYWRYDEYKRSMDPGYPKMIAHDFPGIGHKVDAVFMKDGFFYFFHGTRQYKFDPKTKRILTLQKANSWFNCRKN

[1] = target: gelatinase A catalytic domain (MMP02); assay: Thiopeptolide assay, gelatinase A catalytic domain (GCD, MMP02); format: biochemical
[2] = target: T2, stromelysin-1 catalytic domain (MMP03) (Homo sapiens, UniProt P08254); assay: Thiopeptolide assay, stromelysin-1 catalytic domain (SCD, MMP03); format: biochemical
T2 construct: SCD (stromelysin-1 catalytic domain); made in house; host or cells: Escherichia coli

MMP07 = target: T3, MMP07 (Homo sapiens, UniProt P09237); assay: Thiopeptolide assay, MMP07; format: biochemical
T3 construct: made in house; host or cells: Escherichia coli
T3 sequence (P09237 95-267): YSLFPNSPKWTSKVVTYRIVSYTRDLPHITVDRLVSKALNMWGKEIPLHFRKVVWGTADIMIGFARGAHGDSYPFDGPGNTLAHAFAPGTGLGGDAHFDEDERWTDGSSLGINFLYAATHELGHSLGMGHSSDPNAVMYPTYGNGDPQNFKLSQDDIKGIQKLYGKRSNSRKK

MMP13 = assay: Thiopeptolide assay, MMP13; format: biochemical, human; conditions: Table 1
Method: MMP01, MMP07, MMP09, and MMP13 activity was assayed in a method similar to MMP02 and MMP03 (SCD and GCD). MMP01 and MMP09 can be obtained from Washington University School of Medicine, St. Louis, Mo. MMP07 can be obtained in accordance with the known procedure set forth by Ye QZ, Johnson L. L., and Baragi V., "Gene Syntheses and Expression in E. coli for PUMP, a Human Matrix Metalloproteinase" Biochem. and Biophys. […] MMP 13 can be obtained in accordance with the known procedure set forth by Freije J. M. P., et al., "Molecular Cloning and Expression of Collegenase-3, a Novel Human Matrix Metalloproteinase Produced by Breast Carcinomas" J. Bio.
Hydrolysis of the thiopeptolide substrate Ac-Pro-Leu-Gly-thioester-Leu-Leu-Gly-OEt (Bachem) is used as the primary screen to determine IC50 values for MMP inhibitors. A 100 μL reaction contains 1 mM 5,5'-dithiobis(2-nitrobenzoic acid) (DTNB), 100 μM substrate, 0.1% Brij, enzyme, and inhibitor in the appropriate reaction buffer. Activated full-length enzymes are assayed at 5 nM, Stromelysin Catalytic Domain (SCD) at 10 nM, and Gelatinase A Catalytic Domain (GaCD) at 1 nM. Inhibitors are screened from 100 μM to 1 nM. Full-length enzymes are assayed in 50 mM HEPES, 10 mM CaCl2, pH 7.0; SCD in 50 mM MES, 10 mM CaCl2, pH 6.0; and GaCD in 50 mM MOPS, 10 mM CaCl2, 10 μM ZnCl2, pH 7.0.

[3] = system: bovine nasal and pig articular cartilage; conditions: Andrews et al. 1992; Ellis et al. 1994; cited from earlier work
[4] = system: human ovarian carcinoma xenografts; conditions: Davies, et al., Cancer Res., 1993; cited from earlier work
[5] = system: experimental allergic encephalomyelitis (EAE); conditions: Gijbels, et al., J. Clin. Invest., 1994; cited from earlier work
MMP09 = target: T4, MMP09 (Homo sapiens, UniProt P14780); assay: Thiopeptolide assay, MMP09; format: biochemical; conditions: Table 1
T4 construct: purchased Washington University School of Medicine, St. Louis, Mo
Method: IC50 values were determined using a thiopeptolide substrate, Ac-Pro-Leu-Gly-thioester-Leu-Leu-Gly-OEt (Ye Q.-Z., Johnson L. L., Hupe D. J., and Baragi V., "Purification and Characterization of the Human Stromelysin Catalytic Domain Expressed in Escherichia coli," Biochemistry, 1992;31:11231-11235). MMP01, MMP07, MMP09, and MMP13 activity was assayed in a method similar to MMP02 and MMP03 (SCD and GCD). MMP01 and MMP09 can be obtained from Washington University School of Medicine, St. Louis, Mo. MMP07 can be obtained in accordance with the known procedure set forth by Ye QZ, Johnson L. L., and Baragi V., "Gene Syntheses and Expression in E. coli for PUMP, a Human Matrix Metalloproteinase" Biochem. and Biophys. Res. Comm., 1992; 186:143-149. MMP 13 can be obtained in accordance with the known procedure set forth by Freije J. M. P., et al., "Molecular Cloning and Expression of Collegenase-3, a Novel Human Matrix Metalloproteinase Produced by Breast Carcinomas" J. Bio. Chem., 1994;269:16766-6773.
Hydrolysis of the thiopeptolide substrate Ac-Pro-Leu-Gly-thioester-Leu-Leu-Gly-OEt (Bachem) is used as the primary screen to determine IC50 values for MMP inhibitors. […] The change in absorbance at 405 riM is monitored on a ThermoMax microplate reader at room temperature continuously for 20 minutes.

[6] = MMP Inhibitor Bioassay (plasma levels after gavage); format: in vivo; conditions: rat, po, 50 mg/kg by gavage
Method: Animals are dosed by gavage with either vehicle or compound at 2, 10, or 50 mg/kg. Blood samples are collected from 3-4 animals from each dosing group at 1, 2, 4, 6, and 24 hour postdose, centrifuged, and the plasma immediately frozen at -20° C. Plasma protein is precipitated with an equal volume of acetonitrile and separated by centrifugation at room temperature. The supernate is evaporated to dryness and reconstituted to the original plasma volume with 50 mM Tris, pH 7.6. Ten-fold serial dilutions of the reconstituted plasma samples are prepared in 50 mM Tris, pH 7.6 for dose response assays using the appropriate thiopeptolide assay. The concentration of plasma which yields 50% inhibition of enzyme is determined and used to calculate the inhibitor plasma level from the known IC50 value. […] All control samples are subjected to acetonitrile precipitation and analyzed with the thiopeptolide assay.

MMP-13CD = assay: Thiopeptolide assay, MMP-13CD; format: biochemical, human; conditions: Tables 2, 3, 5, 7
[7] = Table 1, GCD, read-out: IC50 MMP02
[8] = Table 1, SCD, read-out: IC50 MMP03
[9] = Tables 2, 3, 5, 7, read-out: IC50 MMP1
[10] = Tables 2, 3, 5, 7, read-out: IC50 MMP-2CD
[11] = Tables 2, 3, 5, 7, read-out: IC50 MMP 3CD
[12] = Tables 2, 3, 5, 7, read-out: IC50 MMP-7

T2 sequence (P08254 100-272 limits assumed): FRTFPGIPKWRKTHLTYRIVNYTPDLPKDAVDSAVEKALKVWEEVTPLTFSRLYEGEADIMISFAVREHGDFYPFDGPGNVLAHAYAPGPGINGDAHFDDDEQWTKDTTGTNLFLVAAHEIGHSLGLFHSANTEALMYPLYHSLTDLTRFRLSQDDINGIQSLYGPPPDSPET
T4 sequence (P14780 107-707 limits assumed): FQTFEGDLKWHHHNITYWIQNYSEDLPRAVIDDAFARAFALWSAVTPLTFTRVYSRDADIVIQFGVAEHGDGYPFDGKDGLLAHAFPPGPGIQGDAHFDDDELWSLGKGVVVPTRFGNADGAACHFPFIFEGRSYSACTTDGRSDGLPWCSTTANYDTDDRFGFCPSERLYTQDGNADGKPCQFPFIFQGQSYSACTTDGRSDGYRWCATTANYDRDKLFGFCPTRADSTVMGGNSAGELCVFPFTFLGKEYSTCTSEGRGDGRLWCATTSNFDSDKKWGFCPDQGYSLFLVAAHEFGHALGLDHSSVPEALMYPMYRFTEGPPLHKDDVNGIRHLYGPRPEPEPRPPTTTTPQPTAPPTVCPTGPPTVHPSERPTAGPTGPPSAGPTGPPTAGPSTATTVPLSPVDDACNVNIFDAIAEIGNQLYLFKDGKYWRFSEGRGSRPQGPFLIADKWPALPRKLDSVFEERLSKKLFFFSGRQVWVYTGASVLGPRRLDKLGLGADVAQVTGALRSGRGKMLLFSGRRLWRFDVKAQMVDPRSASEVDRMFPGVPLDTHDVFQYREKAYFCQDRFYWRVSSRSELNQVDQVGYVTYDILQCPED

IC50 (MMP01; Table 1, read-out: IC50 MMP01) [nM]	IC50 [1, 7] [nM]	IC50 [2, 8] [nM]	IC50 (MMP07; Table 1, read-out: IC50 MMP07) [nM]	IC50 (MMP13) [nM]	Compound	other results
–	–	–	–	–	TIMP-1: TIMP-1; TIMPs are natural endogenous inhibitors of MMPs	formation of collagen fragments [3]: prevented the formation of collagen fragments
–	–	–	–	–	CNC(=O)[C@H](Cc1ccccc1)NC(=O)[C@H](CC(C)C)[C@H](CSc1cccs1)C(=O)NO [BB-94]	survival [4]: prolonged the survival of mice; tumor burden [4]: decreased the tumor burden
100000	780	1300	82000	5800	O=C(O)[C@H](CCc1ccccc1)NS(=O)(=O)c1ccc2sc3ccccc3c2c1 [Example 7, 2-(Dibenzothiophene-2-sulfonylamino)-4phenyl-butyric acid]	–
–	–	–	–	–	CNC(=O)[C@H](Cc1c[nH]c2ccccc12)NC(=O)[C@@H](CC(=O)NO)CC(C)C [GM6001]	effect on EAE [5]: suppressed the development or reversed the clinical expression of experimental allergic encephalomyelitis (EAE) in a dose dependent manner
47000	270	–	–	–	O=C(O)[C@H](CCc1ccccc1)NS(=O)(=O)c1ccc2oc3ccccc3c2c1 [Example 1, (S)-2-(Dibenzofuran-2-sulfonylamino)-4-phenyl-butyric acid]	IC50 (MMP09): 67000 nM; concentration at 24 h ([6]; 24 hours, read-out: plasma levels at 24 hours postdose): 29 µM; Cmax ([6]; at 1 to 4 hours, read-out: peak plasma levels): 71 µM; Tmax ([6]; read-out: time of peak plasma levels): 1 to 4 h
100000	2400	3700	87000	7100	CCCc1ccc(C(=O)CC(NS(=O)(=O)c2ccc3oc4ccccc4c3c2)C(=O)O)cc1 (stereo not shown) [Example 6]	–
3500	3.8	13	1200	32	O=C(O)[C@H](CCc1ccccc1)NS(=O)(=O)c1ccc2c(c1)oc1ccccc12 [Example 8]	–
49500	24	46.5	2550	330	O=C(O)[C@H](CCc1ccccc1)NS(=O)(=O)c1ccc2c(c1)Cc1ccccc1-2 [Example 9, (S)-2-(9H-Fluorene-2-sulfonylamino)-4-phenyl-butyric acid]	IC50 (MMP09): 100000 nM
39000	76	325	6550	280	O=C(CC[C@H](NS(=O)(=O)c1ccc2oc3ccccc3c2c1)C(=O)O)NCCc1ccccc1 [Example 5, 2-(Dibenzofuran-2-sulfonylamino)-4-phenethylcarbamoyl-butyric acid]	–
–	–	–	–	–	COc1ccccc1CNC(=O)CCC(NS(=O)(=O)c1ccc2oc3ccccc3c2c1)C(=O)O (stereo not shown) [Example F15, 2-(Dibenzofuran-2-sulfonylamino)-4-(2-methoxy-benzylcarbamoyl)-butyric acid]	IC50 (MMP01; [9]): > 100000 nM; IC50 [1, 10]: 300 nM; IC50 [2, 11]: 1800 nM; IC50 (MMP07; [12]): 36900 nM; IC50 (MMP-13CD): 600 nM
–	–	–	–	–	O=C(COc1ccccc1)NCCCCC(NS(=O)(=O)c1ccc2oc3ccccc3c2c1)C(=O)O (stereo not shown) [Example A8, 2-(Dibenzofuran-2-sulfonylamino)-6-(2-phenoxy-acetylamino)-hexanoic acid]	IC50 (MMP01; [9]): > 100000 nM; IC50 [1, 10]: 1600 nM; IC50 [2, 11]: 2500 nM; IC50 (MMP07; [12]): > 100000 nM; IC50 (MMP-13CD): 4800 nM
–	–	–	–	–	CN(C)CCNC(=O)CCC(NS(=O)(=O)c1ccc2oc3ccccc3c2c1)C(=O)O (stereo not shown) [Example F9, 2-(Dibenzofuran-2-sulfonylamino)-4-(2-dimethylamino-ethylcarbamoyl)-butyricacid]	IC50 (MMP01; [9]): > 100000 nM; IC50 [1, 10]: 9800 nM; IC50 [2, 11]: 22600 nM; IC50 (MMP07; [12]): > 100000 nM; IC50 (MMP-13CD): 39300 nM
–	–	–	–	–	CCCc1ccc(NC(=O)CCC(NS(=O)(=O)c2ccc3oc4ccccc4c3c2)C(=O)O)cc1 (stereo not shown) [Example F4, 2-(Dibenzofuran-2-sulfonylamino)-4-(4-propyl-phenylcarbamoyl)-butyric acid]	IC50 (MMP01; [9]): 93700 nM; IC50 [1, 10]: 300 nM; IC50 [2, 11]: 600 nM; IC50 (MMP07; [12]): 42700 nM; IC50 (MMP-13CD): 2200 nM

Compound	IC50 (MMP01; Table 1, read-out: IC50 MMP01) [nM]	IC50 [1, 7] [nM]	IC50 [2, 8] [nM]	IC50 (MMP07; Table 1, read-out: IC50 MMP07) [nM]	IC50 (MMP13) [nM]	other results
2-(Dibenzofuran-2-sulfonylamino)-pentanedioic acid 1-tert-butyl Ester [Example 4]	91000	120	460	3700	350	–
